Results from article PMC9838390, “Discovery and biosynthesis of karnamicins as angiotensin converting enzyme inhibitors” (Nature Communications, 2023).

Assay: Stability in enzyme reaction buffer
Format: physicochemical
Conditions: reaction buffer (50 mM Tris-HCl, pH 7.5, 30 °C)
Procedure: To further examine the catalytic role of methyltransferase KnmF and monooxygenases KnmB1 and KnmB2 during the karnamicin assembly process, we decided to characterize their enzyme activities in vitro. For KnmF, we synthesized 28 (Fig. 3, Supplementary Figs. 111–116, and Supplementary Table 19), a putative dedicated substrate of KnmF with a trihydroxypyridine core. Subsequently, a time course analysis of the enzyme-catalyzed reaction was performed with KnmF expressed by Escherichia coli BL21 (DE3) cells (Supplementary Fig. 117) and 28. Intriguingly, immediately following the consumption of 28, a compound 30 appeared. The subsequent decrease in abundance of 30 was accompanied by the accumulation of karnamicin E1 (1) (Fig. 4a). […]
The reaction of KnmF was carried out at 30 °C in a 100 µL system containing 50 mM Tris-HCl buffer (pH 7.5), 1 mM compound 28, 2 mM SAM, and 2 μM KnmF. […] After centrifugation (10 min at 13,523×g), the supernatant was analyzed by HPLC-DAD with solvent gradient as follows: T = 0 min, 55% B; T = 13.5 min, 55% B; T = 19 min, 65% B; T = 35 min, 65% B; T = 40 min, 100% B; T = 45 min, 100% B; T = 45.1 min, 55% B; T = 51 min, 55% B (A, H2O + 0.1% CH3COOH, v/v; B, MeCN), and the column temperature was 25 °C (Analytical method B).

SMILES: CC(C)CCCCc1nc(-c2nc(C(N)=O)c(O)c(O)c2O)cs1 [Compound 28]
- stability in the reaction buffer: degraded rapidly
